As a reminder, the melting point is the temperature, or range, at which the solid turns liquid.

These results are taken from a melting point compilation (Tetko et al.; mined from patent text by program, amines drawn as free bases though some values may be those of a salt).

In the case of `O=[N+]([O-])c1oc2cc3c(cc2c1-c1ccccc1)CCC3`, the melting point lay within 161 to 164 °C.

`NCCC(O)(c1ccccc1)c1ccccc1` returned a melting point of 134 to 136 °C.

As for `Cc1csc2c(C=O)ncn12`, the melting point was in the range of 172 to 175 °C.

`CCOc1nc(F)cc2nc(=S)[nH]n12` yielded a melting point of 78 to 82 °C.

For the compound `Cc1ccc(N)cc1Nc1nccc(-c2cncc(Br)c2)n1`, the melting point came to 130 °C.

As to `ON=Cc1c(C(F)(F)F)ccc(F)c1F`, the melting point was 111 to 112 °C.

Turning to `CCOC(=O)/C=C/C=Cc1ccc(OCCc2nc(-c3ccccc3)oc2C)cc1`, the melting point is 102 to 103 °C.

`Cc1nn(-c2cc(Oc3ccc([N+](=O)[O-])cc3)c(Cl)cc2Cl)c(=O)n1C(F)F` returned a melting point of 99 to 101 °C.

Compound `COc1ccc2nc(-c3ccc([N+](=O)[O-])cc3)sc2c1` yielded a melting point of 216 to 217 °C.

Take `O=C1c2ccccc2C(=O)N1OCc1cccs1`: the melting point is 130 to 131 °C.

As for `O=C(Nn1c(=O)c(=O)[nH]c2ccc3ccccc3c21)c1ccccc1`, the melting point was more than 300 °C.

`O=[N+]([O-])c1ccc(Cn2cncn2)cc1` had a melting point of 98 to 100 °C.

As for `Cc1ccc2c(c1)nc(C)c(=O)n2-c1ccc(Cl)cc1`, the melting point was in the range of 223 to 225 °C.

Turning to `COc1ccc(-c2nc(SCS(C)=O)[nH]c2-c2ccc(OC)cc2)cc1` (centres undefined), the melting point was 84.5 to 86.5 °C.

The compound `O=C(CCl)Nc1c([N+](=O)[O-])cnn1-c1c(Cl)cc(C(F)(F)F)cc1Cl` gave a melting point of 130 to 133 °C.

`CC(=Cc1ccc(C(C)(C)C)cc1)C(=O)NC(C)c1ccc(NS(C)(=O)=O)c(F)c1` (centres undefined) registered a melting point of 92 to 94 °C.

As for `COC(=O)c1sc(C)c2nc(OC)n(Cc3ccc(-c4ccccc4C#N)cc3)c12`, the melting point was 181 to 182 °C.

Compound `COC(=O)C1CCC2C3CCC4CC(O)C=CC4(C)C3C(=O)CC12C` (centres undefined) displayed a melting point of 172 to 175 °C.

As to `CCCC(C)(N)Cc1c[nH]c2ccccc12` (centres undefined), the melting point was 73.5 to 74.5 °C.

As for `Cc1cc(Cl)cc(Cl)c1N1CCn2c1nc1c(Cl)ccc(C(O)(C3CC3)C3CC3)c12`, the melting point is 193 to 196 °C.

`O=C(Nc1ccc(C(F)(F)F)cc1)Nc1ccc2c(c1)COC2=O` came in with a melting point of 297 to 307 °C.

Take `COc1cc(CCC2=NNC(=O)CC2)cc(OC)c1OC`: the melting point was 116 to 117 °C.

For `CCCCNC(=O)c1cc(C(C)(C)C)c(O)c(C(C)(C)C)c1`, the melting point fell in the range of 181 to 183 °C.

The compound `CCOC(=O)C(C(=O)OC(C)(C)C)c1c([N+](=O)[O-])cc([N+](=O)[O-])c2ccccc12` (centres undefined) had a melting point of 86 to 88 °C.

As to `O=C1c2ccccc2C(OCCCl)N1c1ccccc1` (centres undefined), the melting point worked out at 71 °C.

For the compound `CC(C)(C)CCNc1cccc(-c2ccnc3c(C(=O)c4cccs4)cnn23)c1`, the melting point fell in the range of 156 to 158 °C.

With `CC=CCNc1ccc(Oc2nc(OC)cc(OC)n2)c(C(=O)OC)n1`, the melting point is 82 to 85 °C.

On to `O=C(Nc1ccc2nc(CN3CCCCC3)ccc2c1)c1ccc(-c2ccccc2F)cc1`, for which the melting point is 163 to 164 °C.

In turn, `CCOC(=O)/C=C/C=C/c1ccc(OCC(F)(F)C(F)F)cc1` displayed a melting point of 65 to 66 °C.

In turn, `O=C(O)CN(CC(=O)O)c1nc(N(CC(=O)O)CC(=O)O)nc(N(CC(=O)O)CC(=O)O)n1` had a melting point of 246 to 249 °C.

In the case of `Cc1cc(NC(=O)Nc2c(C)cccc2C)no1`, the melting point is 200 °C.

In turn, `CCOC(=O)C1(C(=O)Nc2cc(Cl)c(Cl)cc2C)CC1` had a melting point of 105 to 107 °C.

Compound `O=C(Cc1ccc(Oc2ccccc2)cc1)NNC(=O)c1ccc(O)cc1` returned a melting point of 181 to 183 °C.

With `CCN1C(=O)CSC1=NOC(=O)NCCCl`, the melting point fell in the range of 99 to 102 °C.

In the case of `CC(=O)N1CCN(Cc2nc(-c3ccc4c(c3)Nc3ccccc3S4)cs2)CC1`, the melting point was in the range of 218 to 220 °C.

Consider `CS(=O)c1csc(C(=O)O)c1` (centres undefined), for which the melting point was in the range of 188 to 190 °C.

The compound `COC(=O)Cc1cc(Oc2nn(C)c(C(F)(F)F)c2Cl)ccc1[N+](=O)[O-]` displayed a melting point of 112 to 115 °C.

Take `COc1ccc2c3c1CCCN3C(C)(C)C=C2C`: the melting point was in the range of 87 to 88 °C.

On to `CC1C(=O)N(C)C(=O)N(C)C1=O`, for which the melting point was 83 to 85 °C.

Compound `N#CCCC(=O)c1cccc(Cl)c1` came in with a melting point of 49 to 51 °C.

As to `Cc1nc2ccccc2cc1NC(=O)N1CCN(c2cc(Cl)cc(Cl)c2)CC1`, the melting point is 247 to 249 °C.

`CC(=O)c1cc2c(cc1F)OC(C)(C)[C@@H](O)[C@@H]2NC(=O)c1ccc(F)cc1` (relative stereo) displayed a melting point of 200 to 203 °C.

`ON=C1Cc2ccccc2C(=NO)c2ccccc21` registered a melting point of 220 to 221 °C.

As for `Cc1ccc(S(=O)(=O)N(C)c2ccc(Cl)cc2CO)cc1`, the melting point lay within 130 to 132 °C.

For the compound `COc1ccc2oc(-c3nc(C(C)(C)C)cs3)cc2c1`, the melting point was in the range of 80 to 81 °C.

For `N#Cc1cc(-c2nc3cncnc3[nH]2)ccc1Oc1ccc(F)cc1`, the melting point is more than 250 °C.

`C=C(C)C(=O)OCc1c(Br)c(Br)c(COC(=O)C(=C)C)c(Br)c1Br` had a melting point of 148 to 149 °C.

As for `COc1ccccc1Oc1c(NS(=O)(=O)c2ccc(C(C)(C)C)cc2)nc(NCCN(C)C)nc1OCCO`, the melting point is 102 to 106 °C.

`O=C(NCCSCc1cccc(Cl)c1)c1c(Br)cccc1Br` showed a melting point of 55 to 57 °C.

`COc1cccc(C(=O)Nc2ccc3c(c2)CCCC3=O)c1` displayed a melting point of 142 to 143 °C.

As for `S=C1N=c2ccc(OCCN3CCC(Cc4ccccc4)CC3)cc2=N1`, the melting point is 273 to 275 °C.

`CC(C(=O)O)c1cccc(C(=O)c2ccccc2)c1[N+](=O)[O-]` (centres undefined): the melting point was in the range of 177 to 179 °C.

In the case of `COc1ccc2c(c1)CCNC(=O)C2`, the melting point lay in the range of 152 to 154 °C.

In turn, `O=S(=O)(Nc1nc2ncccn2n1)c1ccccc1Cl` came in with a melting point of 254 to 256 °C.

In the case of `Cc1ccc(Cl)cc1N1CCCN(C2CCC2)C1=S`, the melting point was in the range of 152 to 154 °C.

Compound `O=C(O)COc1c(-c2cc(Cl)cc(Cl)c2)cc(C(=O)NCCCCCCc2ccccc2)cc1-c1cc(Cl)cc(Cl)c1` registered a melting point of 151 to 159 °C.

Compound `CC(C)(C)OC(=O)N1CCC2(CC1)CC(c1ncccc1Cl)=NO2` came in with a melting point of 97 to 102 °C.

For `CCCc1ccc(OC)c(-c2csc(NC(=O)NN3CCN(CCCN4CCOCC4)CC3)n2)c1`, the melting point came to 229 °C.

Turning to `COc1cc(C(=O)NCc2ccc3c(c2)C(=C2CCN(C)CC2)c2ccccc2C=C3)cc(OC)c1OC`, the melting point lay in the range of 200 to 202 °C.

Compound `CCc1cc(OCc2ccc(-c3ccccc3-c3nnnn3-c3ccncc3)cc2)c2ccccc2n1` showed a melting point of 155 to 170 °C.

On to `CC1=C(c2ccccc2)C(=O)N(C(C)(C)C(=O)Cc2cc(F)cc(F)c2)CO1`, for which the melting point lay within 76.5 to 77.5 °C.

`O=C1Nc2cccnc2N(C(=O)NCCN2CCC(CCCN3CCCCC3)CC2)c2ccccc21` registered a melting point of 192 to 193 °C.

For the compound `Cc1cc(Oc2ccccc2)nc2ccccc12`, the melting point amounted to 101 °C.

For `Nc1cc(I)cc(CF)c1`, the melting point is 48.5 to 50 °C.

The compound `CCn1cc(C(=O)O)c(=O)c2cc(F)c(N3CCSCC3)nc21` gave a melting point of 241 to 243 °C.

On to `CC(C)OC(=O)C1CCCN1S(=O)(=O)c1ccc(N2CCC(=O)CC2)cc1` (centres undefined), for which the melting point was in the range of 97 to 101 °C.

The compound `COc1cc(C=CC(=O)c2ccc(C3CCCCC3)cc2)cc(OC)c1` showed a melting point of 75.5 to 76.2 °C.

As for `CC1(C)CCC(C)(C)c2cc(C(N)C(=O)NCS(=O)(=O)c3ccccc3)ccc21` (centres undefined), the melting point was 175 to 176 °C.

As for `COc1ccc(C2=CCN(Cc3c[nH]c4ncccc34)CC2)cc1`, the melting point is 202 to 204 °C.

In turn, `CN(C)CCOc1ccc2[nH]c(C(=O)N3CC(CCl)c4c3cc([N+](=O)[O-])c3cc(S(C)(=O)=O)ccc43)cc2c1` (centres undefined) gave a melting point of 250 to 252 °C.

In turn, `CSc1nccc(-c2cc(C)ccc2N)n1` showed a melting point of 120 to 123 °C.

`CC(C)(c1ccc(Oc2cccc(N)c2)cc1)c1ccc(C(C)(C)c2ccc(Oc3cccc(N)c3)cc2)cc1` returned a melting point of 138 to 140 °C.

Turning to `O=C(O)COc1cc2c(c(Cl)c1Cl)C(=O)C(C1CCCC1)C2` (centres undefined), the melting point lay in the range of 184 to 186 °C.

`COc1ccccc1N(CN1C(=O)CSC1=O)C(=O)CCl`: the melting point fell in the range of 188 to 191 °C.

`CSc1ncc(C(=O)NC2CC2)c(Nc2ccc3cn[nH]c3c2)n1` yielded a melting point of more than 270 °C.

As to `COC(=O)c1ccc(-c2n[nH]c(-c3ccccc3)n2)cc1`, the melting point was 243 to 244 °C.

`COc1cc(Nc2nccc(-c3cc(OC)c(OC)c(OC)c3)n2)cc(OC)c1OC` yielded a melting point of 187 °C.

Regarding `CC(C)n1nc(-c2sc(C(=O)NC3CC3)nc2-c2cccc(Cl)c2)ccc1=O`, the melting point was in the range of 118 to 120 °C.

`CC(=O)OC1CSC(Oc2cc(F)cnc2Cl)C(OC(C)=O)C1OC(C)=O` (centres undefined) gave a melting point of 185 °C.

`NC1=NS(=O)(=O)c2sc(Cl)cc2N1` displayed a melting point of more than 361 °C.

`O=C(O)CCCC(=O)Oc1cccc(-c2cn3c(n2)sc2ccccc23)c1` showed a melting point of 168 to 171 °C.

Consider `Cc1c(CCC#N)c2c(c(C(C)C)c1OCc1ccccc1)CC(C)(C)O2`, for which the melting point is 158 to 159 °C.

With `CN(C)C1(c2ccccc2)CCC(c2[nH]c3ccccc3c2Cc2ccccc2)CC1` (centres undefined), the melting point was in the range of 194 to 199 °C.

As for `CCCCn1c(-c2ccc(Cl)c(S(=O)(=O)N(C)C)c2)csc1=Nc1ccccc1C`, the melting point was found to be 104 °C.

The compound `CC(C)(C)c1cc(CCCO)cc(C(C)(C)C)c1O` displayed a melting point of 67.5 to 69 °C.

The compound `O=C1CCC(C=Cc2ccc(-n3ccnc3)cc2)=NN1` had a melting point of 230 to 231 °C.

`Cc1ccc(C(N)(c2ccc3c(c2)C(c2cccc(Cl)c2)Nc2nnnn2-3)c2cncn2C)cc1` (centres undefined) came in with a melting point of 140 °C.

`Nc1nc(-c2cc(Cl)ccc2Cl)nc(N2CCCC2)n1` returned a melting point of 191 to 193 °C.

For `COc1ccc2nc(NC(=O)C(CC3CCCC3)c3ccc(S(=O)(=O)N(C)C)cc3)sc2n1` (centres undefined), the melting point lay in the range of 229 to 234 °C.
